The values that follow come from ChEMBL document CHEMBL1148070, “Cytotoxic saponins from New Zealand Myrsine species” (1994).

One assay concerns Human alphaherpesvirus 1. As to the kind of experiment: Antiviral activity against HSV1 assessed as inhibition of virus-induced cytopathic effect 40 ug/disk. It counts as functional, organism-based. (Damage to the host cells serves as the signal in cytopathic effect assays.)
The next assay deals with P388. The assay can be described thus: Cytotoxicity against mouse P388 cells. The settings on record: read-out: ID50 (the source's name). It is filed as functional.
Another assay relates to Poliovirus 1. The assay can be described thus: Antiviral activity against Human poliovirus 1 assessed as inhibition of virus-induced cytopathic effect 40 ug/disk. It is filed as functional, organism-based.

Molecules are shown by their SMILES. In brackets after ≈: the same amount, converted by molar mass. Activity calls are given as the source filed them. No cut-off for these calls is given here. Some results are limits rather than exact numbers.

In the case of `CC1(C)[C@@H](O[C@@H]2OC[C@H](O[C@@H]3O[C@H](CO)[C@@H](O)[C@H](O)[C@H]3O[C@@H]3OC[C@@H](O)[C@H](O)[C@H]3O)[C@H](O)[C@H]2O[C@@H]2O[C@H](CO)[C@@H](O)[C@H](O)[C@H]2O)CC[C@]2(C)[C@H]3CC[C@]45OC[C@@]6(CC[C@](C)(C=O)C[C@H]64)[C@H](O)C[C@@]5(C)[C@]3(C)CC[C@@H]12` [ARDISIACRISPIN A], the inhibition result in the assay with Human alphaherpesvirus 1 and in the assay with Poliovirus 1 was “Active” in each case. Besides, the IC50 in the assay on P388 amounted to 7 µg/mL (≈ 6.6 µM).
Turning to `C[C@@H]1O[C@@H](O[C@H]2[C@H](O[C@H]3CO[C@@H](O[C@H]4CC[C@]5(C)[C@H]6CC[C@]78OC[C@@]9(CCC(C)(C)C[C@H]97)[C@H](O)C[C@@]8(C)[C@]6(C)CC[C@H]5C4(C)C)[C@H](O[C@@H]4O[C@H](CO)[C@@H](O)[C@H](O)[C@H]4O)[C@H]3O)O[C@H](CO)[C@@H](O)[C@@H]2O)[C@H](O)[C@H](O)[C@H]1O`, the inhibition entry in the assay with Human alphaherpesvirus 1 and in the assay on Poliovirus 1 was “Active” each time. Moreover, in the assay with P388, the IC50 turned out to be 0.85 µg/mL (≈ 0.801 µM).
As for `CC1(C)CC[C@]23C(=O)O[C@@]4(CC[C@@H]5[C@@]6(C)CC[C@H](O[C@@H]7OC[C@H](O[C@@H]8O[C@H](CO)[C@@H](O)[C@H](O)[C@H]8O[C@@H]8OC[C@@H](O)[C@H](O)[C@H]8O)[C@H](O)[C@H]7O[C@@H]7O[C@H](CO)[C@@H](O)[C@H](O)[C@H]7O)C(C)(C)[C@@H]6CC[C@@]5(C)[C@]4(C)C[C@H]2O)[C@@H]3C1`, the inhibition entry in the assay on Human alphaherpesvirus 1 and with Poliovirus 1 was “Active” each time. In addition, in the assay with P388, the IC50 is above 12.5 µg/mL.
`CC1(C)CC[C@]23C(O)O[C@@]4(CC[C@@H]5[C@@]6(C)CC[C@H](O[C@@H]7OC[C@H](O[C@@H]8O[C@H](CO)[C@@H](O)[C@H](O)[C@H]8O[C@@H]8OC[C@@H](O)[C@H](O)[C@H]8O)[C@H](O)[C@H]7O[C@@H]7O[C@H](CO)[C@@H](O)[C@H](O)[C@H]7O)C(C)(C)[C@@H]6CC[C@@]5(C)[C@]4(C)C[C@H]2O)[C@@H]3C1` (some centres undefined): the inhibition entry in the assay on Human alphaherpesvirus 1 and in the assay with Poliovirus 1 was “Active” in each case. Besides, the IC50 in the assay on P388 was 7 µg/mL (≈ 6.58 µM).
For `C[C@@H]1O[C@@H](O[C@H]2[C@H](O[C@H]3CO[C@@H](O[C@H]4CC[C@]5(C)[C@H]6CC[C@]78OC(O)[C@@]9(CCC(C)(C)C[C@H]97)[C@H](O)C[C@@]8(C)[C@]6(C)CC[C@H]5C4(C)C)[C@H](O[C@@H]4O[C@H](CO)[C@@H](O)[C@H](O)[C@H]4O)[C@H]3O)O[C@H](CO)[C@@H](O)[C@@H]2O)[C@H](O)[C@H](O)[C@H]1O` (some centres undefined), the inhibition result with Human alphaherpesvirus 1 and with Poliovirus 1 was “Active” each time. Further, the IC50 with P388 was above 12.5 µg/mL.
Take `C[C@@H]1O[C@@H](O[C@H]2[C@H](O[C@H]3CO[C@@H](O[C@H]4CC[C@]5(C)[C@H]6CC[C@]78OC(=O)[C@@]9(CCC(C)(C)C[C@H]97)[C@H](O)C[C@@]8(C)[C@]6(C)CC[C@H]5C4(C)C)[C@H](O[C@@H]4O[C@H](CO)[C@@H](O)[C@H](O)[C@H]4O)[C@H]3O)O[C@H](CO)[C@@H](O)[C@@H]2O)[C@H](O)[C@H](O)[C@H]1O`: the inhibition entry in the assay with Human alphaherpesvirus 1 and in the assay on Poliovirus 1 was “Active” throughout. In the assay on P388, the IC50 stood at 10.2 µg/mL (≈ 9.49 µM).
With `C[C@@H]1O[C@@H](O[C@H]2[C@H](O[C@H]3CO[C@@H](O[C@H]4CC[C@]5(C)[C@H]6CC[C@]78OC[C@@]9(CC[C@](C)(C=O)C[C@H]97)[C@H](O)C[C@@]8(C)[C@]6(C)CC[C@H]5C4(C)C)[C@H](O[C@@H]4O[C@H](CO)[C@@H](O)[C@H](O)[C@H]4O)[C@H]3O)O[C@H](CO)[C@@H](O)[C@@H]2O)[C@H](O)[C@H](O)[C@H]1O` [ARDISIACRISPIN B], the inhibition result in the assay with Human alphaherpesvirus 1 and in the assay on Poliovirus 1 was “Active” each time. Moreover, the IC50 in the assay with P388 is 8.6 µg/mL (≈ 8 µM).
Consider `CC1(C)CC[C@]23CO[C@@]4(CC[C@@H]5[C@@]6(C)CC[C@H](O[C@@H]7OC[C@H](O[C@@H]8O[C@H](CO)[C@@H](O)[C@H](O)[C@H]8O[C@@H]8OC[C@@H](O)[C@H](O)[C@H]8O)[C@H](O)[C@H]7O[C@@H]7O[C@H](CO)[C@@H](O)[C@H](O)[C@H]7O)C(C)(C)[C@@H]6CC[C@@]5(C)[C@]4(C)C[C@H]2O)[C@@H]3C1` [LYSIKOKIANOSIDE 1], for which the inhibition entry in the assay on Human alphaherpesvirus 1 and in the assay on Poliovirus 1 was “Active” throughout. Further, the IC50 with P388 is 0.85 µg/mL (≈ 0.812 µM).
